# Read-outs that look alike come from different tables or passages of the source.
# How the values were obtained:
# [1] = target: cytochrome P450 2C9 (CYP2C9) (Homo sapiens, UniProt P11712); conditions: cited from earlier work
# [2] = Pre-formed 3/1 benzyl alcohol/budiodarone composition, solubility in water (Example 7); type: physicochemical; conditions: 25 mg/ml budiodarone, 0.92% (v/v) benzyl alcohol, pre-mixed before water is added
# Experimental: A clear solution containing 25 mg/ml of budiodarone and 0.92% (v/v) of benzyl alcohol (molar ratio of 3/1) was prepared. In this example, the association between budiodarone and benzyl alcohol was pre-formed before water is added.
# Methanol (5 ml), budiodarone tartrate (250 mg, 0.293 mmole), and benzyl alcohol (92 μl, 0.880 mmole) were mixed. In this mixture, the molar ratio of benzyl alcohol to budiodarone was 3/1. Methanol was removed at 36° C. under partial vacuum (30 mm Hg) to form a clear oily residue. The residue was left at room temperature under high vacuum (1 mmHg) for 1 hour to remove traces of methanol. Water (10 ml), is then added, and the sample is vortexed for 3×10 sec.
# In order to confirm the solubility of budiodarone and the molar ratio between benzyl alcohol and budiodarone, the sample was analyzed by HPLC. The analysis was performed immediately after preparation of the solution. An aliquot of the solution was centrifuged as described above in order to remove insoluble material.
# [3] = Lower-limit ratio for soluble benzyl alcohol and budiodarone compositions in water (Example 6); type: physicochemical; conditions: 25, 50 and 100 mg/ml, introduced ratios 0.8 to 4.9, 24 hours in the dark, room temperature
# Experimental: Three series of 20-ml screw-cap glass vials were prepared as described in Tables 5 to 7. Budiodarone tartrate was added to the empty vials, followed by water, and then benzyl alcohol was added. The vials were capped and the mixtures were vortexed for three times 10 seconds. The vials were then left in the dark for 24 hours and were then analyzed as described above using HPLC Conditions 2 and 3.
# In FIG. 4, the approximately 5/1 lower-limit molar ratio is constant over a wide range of budiodarone concentrations, at least between budiodarone concentrations of 25 mg/ml and 100 mg/ml. The resulting ratios in solution, following 24-hour in the dark, were calculated from HPLC analysis data and were plotted versus the actual ratios introduced into the vials. Each point represents the mean findings of the three concentrations (25 mg/ml, 50 mg/ml, and 100 mg/ml)+/−standard deviation. […] This association takes place even when the original ratio introduced into the vial is as low as 0.8/1. Presumably the 5/1 ratio is an optimum molar ratio allowing for the optimum balance of repulsive ionic forces and attractive van der Waals forces between water molecules and the budiodarone/benzyl alcohol complex. […]
# [4] = cited from earlier work
# [5] = Solubility of budiodarone tartrate in water containing various amounts of benzyl alcohol (Example 3); type: physicochemical
# Experimental: Three series of samples were prepared. […] The vials were then capped and the mixtures were vortexed on a VWR Genie 2 vortexer at maximum speed for 3×10 sec duration. The final concentrations of budiodarone were 25 mg/ml, 50 mg/ml, and 100 mg/ml in water containing benzyl alcohol from 0.5% to 11% v/v. The vials were kept in the dark for 24 hours and analyzed by HPLC as per Example 1 Conditions 1.
# The results are shown in FIG. 1, where the amount of budiodarone in solution is plotted as a function of the benzyl alcohol concentration. […] For example, at 25 mg/ml, budiodarone is soluble in approximately 1.5% to 4.5% v/v of benzyl alcohol. At 50 mg/ml, budiodarone is soluble in approximately 3% to 6% benzyl alcohol. At 100 mg/ml, budiodarone is soluble in approximately 4% to 8% benzyl alcohol.
# [6] = pre-clinical safety testing; cited from earlier work
# [7] = Low ratio of benzyl alcohol to budiodarone in water and 5% dextrose solution, stability (Example 9); type: physicochemical; conditions: 2.14/1 molar ratio, 25 mg/ml, room temperature
# Experimental: The methanol was evaporated at 36° C. under partial vacuum (30 mmHg) to yield a thin film. To this residue was added 5 ml of water. The sample was then vortexed and a clear 25 mg/ml solution of budiodarone tartrate was obtained. A small aliquot was diluted 25 times with methanol and analyzed by HPLC (Sample 1). To the flask was then added 250 mg of D-(+)-glucose (also known as dextrose), resulting in a clear solution of 25 mg/ml budiodarone tartrate in 5% dextrose (D5W). A small sample was analyzed by HPLC (Sample 2).
# Sample 2 is then analyzed over time to check physical and/or chemical stability in solution (Table 9).
# [8] = Solubility of budiodarone tartrate in different co-solvents (Example 5); type: physicochemical; conditions: co-solvent 3.6% to 14.4% in water, 25 mg/ml, 24 hours
# Experimental: Co-solvents that are routinely used in injectable pharmaceutical preparations were studied. These were dimethylacetamide (DMA), dimethylsulfoxide (DMSO), ethanol (EtOH), and N-methylpyrrolidone (NMP). Samples were prepared as described in Table 4 below.
# Samples were prepared by mixing all three components together as in previous examples, using a vortexer at maximum speed for 3×10 sec. Samples were then left in the dark for 24 hours and analyzed by HPLC following centrifugation to precipitate any insoluble material.
# [9] = tested on: patients with paroxysmal atrial fibrillation (PAF); conditions: 12 weeks, cited from earlier work; for median reduction in AFB: compared to placebo
# Sequence of cytochrome P450 2C9 (CYP2C9) (P11712 whole entry): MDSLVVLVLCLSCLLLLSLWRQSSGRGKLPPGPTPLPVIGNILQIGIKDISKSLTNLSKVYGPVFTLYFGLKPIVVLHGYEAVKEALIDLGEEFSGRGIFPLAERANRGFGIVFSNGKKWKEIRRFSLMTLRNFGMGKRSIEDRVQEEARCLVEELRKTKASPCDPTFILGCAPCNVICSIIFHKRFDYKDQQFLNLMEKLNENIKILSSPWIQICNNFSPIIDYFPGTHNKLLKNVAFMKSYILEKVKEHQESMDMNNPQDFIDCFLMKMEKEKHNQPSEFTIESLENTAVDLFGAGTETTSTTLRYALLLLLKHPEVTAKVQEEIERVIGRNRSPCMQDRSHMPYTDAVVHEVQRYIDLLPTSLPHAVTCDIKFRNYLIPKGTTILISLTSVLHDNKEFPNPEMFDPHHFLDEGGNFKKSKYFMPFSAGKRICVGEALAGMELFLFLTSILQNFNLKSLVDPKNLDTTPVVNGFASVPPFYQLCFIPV
smiles,measurement,setting,value
"CC[C@H](C)OC(=O)Cc1oc2ccccc2c1C(=O)c1cc(I)c(OCCN(CC)CC)c(I)c1 [budiodarone, (1S)-1-methylpropyl 2-(3-{4-[2-(diethylamino)ethoxy]-3,5-diiodobenzoyl}benzofuran-2-yl)acetate]",inhibition of CYP2C9,[1],inhibitor
same,solubility in water of pre-formed 3/1 molar ratio,[2],water soluble
same,lower-limit molar ratio of benzyl alcohol to budiodarone in solution,[3],approximately 5/1
same,Mean trough level,[4]; 200 mg bid oral,2.4 ± 0.9 ng/mL
same,Mean trough level,[4]; 400 mg bid oral,5.2 ± 1.7 ng/mL
same,Mean trough level,[4]; 600 mg bid oral,13.1 ± 5.6 ng/mL
same,Mean trough level,[4]; 800 mg bid oral,19.8 ± 17.9 ng/mL
same,trough level,[4]; washout,0.3+0.4 ng/mL
same,molar ratio above which budiodarone was not fully soluble in water (phase separation),[5],approximately 11/1
same,lower limit of the molar ratio of benzyl alcohol to budiodarone that forms in solution,[5]; 25-100 mg/ml,approximately 5/1
same,findings in canine testes,[6],Non-specific but potentially toxic findings
same,time for which the low molar ratio is stable in D5W,[7],about 120 hours
same,"amount of solubilized budiodarone in the presence of DMA, DMSO, EtOH, or NMP",[8],not significantly different from the amount solubilized in water alone
same,median reduction in AFB,[9]; 400 mg BID,54.4%
same,median reduction in AFB,[9]; 600 mg BID,75.5%
same,median reduction in AFB,"[9]; 600 mg BID, listed as Budiodarone",up to 75.5%
same,safety,"[9]; 200, 400 or 600 mg BID",no drug-related SAEs
